Where a SMILES comes first, the peptide text is derived from it. [ ]: non-standard residue; d: D form. The star is where a group is joined. NHCH2CH2OH = OCCN*; For = O=C*

This is an account of results in article PMC7531004, “Discovery of gramicidin A analogues with altered activities by multidimensional screening of a one-bead-one-compound library” (Nature Communications, 2020).

Data set [1] is described as follows: H+/Na+ transport assay of bead-derived peptides (one-point).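 Also: relative to parent gramicidin A activity set to 1.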 The class given is biochemical. Set-up: key: relative activity; mean of two control wells = 1.00. The settings on record: bead-derived peptide solution, EYPC/EYPG LUVs. Put shortly: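 Pyranine (1.0 mM)-loaded LUVs containing egg yolk phosphatidylglycerol were prepared by film hydration, sonication and extrusion, then mixed with diluted bead-derived peptide in 96-well format and vortexed 30 min at room temperature. Fluorescence was normalized between untreated LUVs (0%) and Triton X-100 lysis (100%).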

For data set [2], the system named is P388 mouse leukemia cells. The settings on record: 92 h. Put shortly:
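Peptide stocks diluted 250× in growth medium; P388 cells 1 × 10^4 cells/mL final; 37 °C, 5% CO2, 92 h. WST-1 + 1-methoxy PMS, 4 h, A415. Output: % viability.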

Data set [3] concerns Streptococcus pyogenes SSI-9. Description: Antibacterial activity assay of bead-derived peptides (three concentrations). Type of data set: cell-based. More on the design: key: +++: inhibition by the 640-fold diluted peptide solution; ++: inhibition by the 160-fold diluted solution; +: inhibition by the 40-fold diluted solution; -: no inhibition. The settings on record: S. pyogenes, bead-derived peptide solution, three concentrations. Put shortly: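 First, each peptide stock was diluted 4- and 16-fold in DMSO; next, the three solutions were mixed with S. pyogenes SSI-9 suspension (2 × 10^5 CFU) in cation-adjusted Mueller Hinton Broth plus 5% laked horse blood; finally, plates stood 18 h at 37 °C before checking for grown-cell precipitation.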

For the compound `CNC(=O)C[C@@H](NC(=O)[C@@H](NC(=O)[C@@H](CC(C)C)NC(=O)[C@H](C)NC(=O)[C@H](NC(=O)[C@H](C)NC(=O)CNC(=O)[C@@H](NC=O)C(C)C)C(C)C)C(C)C)C(=O)N[C@@H](Cc1c[nH]c2ccccc12)C(=O)N[C@H](CC(C)C)C(=O)N[C@@H](Cc1c[nH]c2ccccc12)C(=O)N[C@@H](C(=O)N[C@@H](Cc1c[nH]c2ccccc12)C(=O)N[C@@H](C(=O)N[C@@H](Cc1c[nH]c2ccccc12)C(=O)NCCO)C(C)C)C(C)C` [compound 11349] (For-VGA[dV]A[dL]V[dD](NHMe)W[dL]W[dV]W[dV]W-NHCH2CH2OH), the “H+/Na+ transport activity normalized against the value of 1 (1.00)” value (“H+/Na+ transport activity normalized” for short) in data set [1] worked out at 1.00. Moreover, the cell viability/% in data set [2] worked out at 34.3%. Besides, in data set [3], the antibacterial activity entry is on record as “-”.
For `CNC(=O)C[C@@H](NC(=O)[C@H](Cc1c[nH]c2ccccc12)NC(=O)[C@@H](CC(C)C)NC(=O)[C@H](Cc1c[nH]c2ccccc12)NC(=O)[C@H](NC(=O)[C@H](Cc1c[nH]c2ccccc12)NC(=O)[C@@H](CC(C)C)NC(=O)[C@@H](NC(=O)[C@H](NC(=O)[C@H](C)NC(=O)[C@H](NC(=O)[C@H](C)NC(=O)CNC(=O)[C@@H](NC=O)C(C)C)C(C)C)C(C)C)C(C)C)C(C)C)C(=O)N[C@@H](Cc1c[nH]c2ccccc12)C(=O)NCCO` [compound 11368] (For-VGA[dV]A[dV]V[dL]W[dV]W[dL]W[dD](NHMe)W-NHCH2CH2OH), in that order: 1.01, 61.1% and “-”.
For `CC(C)C[C@@H](NC(=O)[C@H](C)NC(=O)[C@H](NC(=O)[C@H](C)NC(=O)CNC(=O)[C@@H](NC=O)C(C)C)C(C)C)C(=O)N[C@H](C(=O)N[C@@H](C(=O)N[C@@H](Cc1c[nH]c2ccccc12)C(=O)N[C@H](CC(C)C)C(=O)N[C@@H](Cc1c[nH]c2ccccc12)C(=O)N[C@@H](C(=O)N[C@@H](Cc1c[nH]c2ccccc12)C(=O)N[C@H](CC(C)C)C(=O)N[C@@H](Cc1c[nH]c2ccccc12)C(=O)NCCO)[C@H](C)O)C(C)C)C(C)C` [compound 11374] (For-VGA[dV]A[dL]V[dV]W[dL]W[dT]W[dL]W-NHCH2CH2OH), in that order: 1.07, 45.1% and “+”.
`CNC(=O)C[C@@H](NC(=O)[C@@H](NC(=O)[C@@H](CC(C)C)NC(=O)[C@H](C)NC(=O)[C@H](NC(=O)[C@H](C)NC(=O)CNC(=O)[C@@H](NC=O)C(C)C)C(C)C)C(C)C)C(=O)N[C@@H](Cc1c[nH]c2ccccc12)C(=O)N[C@@H](C(=O)N[C@@H](Cc1c[nH]c2ccccc12)C(=O)N[C@@H](C(=O)N[C@@H](Cc1c[nH]c2ccccc12)C(=O)N[C@@H](C(=O)N[C@@H](Cc1c[nH]c2ccccc12)C(=O)NCCO)C(C)C)C(C)C)C(C)C` [compound 11383] (For-VGA[dV]A[dL]V[dD](NHMe)W[dV]W[dV]W[dV]W-NHCH2CH2OH): the “H+/Na+ transport activity normalized” value in data set [1] was found to be 1.09. This compound also returned a cell viability/% in data set [2] of 55.3%. For the same compound, the antibacterial activity result in data set [3] was “-”.
For `CNC(=O)C[C@@H](NC(=O)[C@H](Cc1c[nH]c2ccccc12)NC(=O)[C@@H](CC(C)C)NC(=O)[C@H](Cc1c[nH]c2ccccc12)NC(=O)[C@@H](CC(C)C)NC(=O)[C@H](Cc1c[nH]c2ccccc12)NC(=O)[C@H](NC(=O)[C@@H](NC(=O)[C@@H](CC(C)C)NC(=O)[C@H](C)NC(=O)[C@@H](CC(C)C)NC(=O)[C@H](C)NC(=O)CNC(=O)[C@@H](NC=O)C(C)C)C(C)C)C(C)C)C(=O)N[C@@H](Cc1c[nH]c2ccccc12)C(=O)NCCO` [compound 11401] (For-VGA[dL]A[dL]V[dV]W[dL]W[dL]W[dD](NHMe)W-NHCH2CH2OH), in that order: 1.09, 56.6% and “-”.
For `CC(C)C[C@@H](NC(=O)[C@H](C)NC(=O)CNC(=O)[C@@H](NC=O)C(C)C)C(=O)N[C@@H](C)C(=O)N[C@H](CC(C)C)C(=O)N[C@H](C(=O)N[C@H](CC(C)C)C(=O)N[C@@H](Cc1c[nH]c2ccccc12)C(=O)N[C@@H](C(=O)N[C@@H](Cc1c[nH]c2ccccc12)C(=O)N[C@H](CC(C)C)C(=O)N[C@@H](Cc1c[nH]c2ccccc12)C(=O)N[C@H](CC(C)C)C(=O)N[C@@H](Cc1c[nH]c2ccccc12)C(=O)NCCO)[C@H](C)O)C(C)C` [compound 11408] (For-VGA[dL]A[dL]V[dL]W[dT]W[dL]W[dL]W-NHCH2CH2OH), in that order: 1.30, 57.5% and “-”.
For `CNC(=O)C[C@@H](NC(=O)[C@H](Cc1c[nH]c2ccccc12)NC(=O)[C@@H](CC(C)C)NC(=O)[C@H](Cc1c[nH]c2ccccc12)NC(=O)[C@@H](CC(C)C)NC(=O)[C@H](Cc1c[nH]c2ccccc12)NC(=O)[C@H](NC(=O)[C@@H](NC(=O)[C@H](NC(=O)[C@H](C)NC(=O)[C@@H](CC(C)C)NC(=O)[C@H](C)NC(=O)CNC(=O)[C@@H](NC=O)C(C)C)C(C)C)C(C)C)C(C)C)C(=O)N[C@@H](Cc1c[nH]c2ccccc12)C(=O)NCCO` [compound 11422] (For-VGA[dL]A[dV]V[dV]W[dL]W[dL]W[dD](NHMe)W-NHCH2CH2OH), in that order: 1.04, 47.4% and “+”.
Take `CC(C)C[C@@H](NC(=O)[C@H](C)NC(=O)CNC(=O)[C@@H](NC=O)C(C)C)C(=O)N[C@@H](C)C(=O)N[C@@H](C(=O)N[C@H](C(=O)N[C@H](CC(C)C)C(=O)N[C@@H](Cc1c[nH]c2ccccc12)C(=O)N[C@H](CC(C)C)C(=O)N[C@@H](Cc1c[nH]c2ccccc12)C(=O)N[C@@H](C(=O)N[C@@H](Cc1c[nH]c2ccccc12)C(=O)N[C@H](CC(C)C)C(=O)N[C@@H](Cc1c[nH]c2ccccc12)C(=O)NCCO)[C@H](C)O)C(C)C)C(C)C` [compound 11425] (For-VGA[dL]A[dV]V[dL]W[dL]W[dT]W[dL]W-NHCH2CH2OH): in data set [1], the “H+/Na+ transport activity normalized” value is on record as 1.12. The same compound gave a cell viability/% in data set [2] of 41.5%. For the same compound, the antibacterial activity entry in data set [3] was “+”.
For `CC(C)C[C@@H](NC(=O)[C@H](C)NC(=O)[C@H](NC(=O)[C@H](C)NC(=O)CNC(=O)[C@@H](NC=O)C(C)C)C(C)C)C(=O)N[C@H](C(=O)N[C@@H](C(=O)N[C@@H](Cc1c[nH]c2ccccc12)C(=O)N[C@@H](C(=O)N[C@@H](Cc1c[nH]c2ccccc12)C(=O)N[C@H](CC(C)C)C(=O)N[C@@H](Cc1c[nH]c2ccccc12)C(=O)N[C@H](CC(C)C)C(=O)N[C@@H](Cc1c[nH]c2ccccc12)C(=O)NCCO)C(C)C)[C@H](C)O)C(C)C` [compound 11433] (For-VGA[dV]A[dL]V[dT]W[dV]W[dL]W[dL]W-NHCH2CH2OH), in data set [1], the “H+/Na+ transport activity normalized” value was 1.38. Further, in data set [2], the cell viability/% stood at 51.1%. In addition, the antibacterial activity entry in data set [3] is “-”.
For `CC(C)C[C@@H](NC(=O)[C@H](C)NC(=O)CNC(=O)[C@@H](NC=O)C(C)C)C(=O)N[C@@H](C)C(=O)N[C@@H](C(=O)N[C@H](C(=O)N[C@@H](C(=O)N[C@@H](Cc1c[nH]c2ccccc12)C(=O)N[C@@H](C(=O)N[C@@H](Cc1c[nH]c2ccccc12)C(=O)N[C@H](CC(C)C)C(=O)N[C@@H](Cc1c[nH]c2ccccc12)C(=O)N[C@@H](C(=O)N[C@@H](Cc1c[nH]c2ccccc12)C(=O)NCCO)C(C)C)C(C)C)C(C)C)C(C)C)C(C)C` [compound 11438] (For-VGA[dL]A[dV]V[dV]W[dV]W[dL]W[dV]W-NHCH2CH2OH), in that order: 1.18, 100.0% and “++”.
For `CC(C)C[C@@H](NC(=O)[C@H](C)NC(=O)[C@H](NC(=O)[C@H](C)NC(=O)CNC(=O)[C@@H](NC=O)C(C)C)C(C)C)C(=O)N[C@H](C(=O)N[C@H](CC(C)C)C(=O)N[C@@H](Cc1c[nH]c2ccccc12)C(=O)N[C@@H](C(=O)N[C@@H](Cc1c[nH]c2ccccc12)C(=O)N[C@H](CC(C)C)C(=O)N[C@@H](Cc1c[nH]c2ccccc12)C(=O)N[C@H](CC(C)C)C(=O)N[C@@H](Cc1c[nH]c2ccccc12)C(=O)NCCO)C(C)C)C(C)C` [compound 11439] (For-VGA[dV]A[dL]V[dL]W[dV]W[dL]W[dL]W-NHCH2CH2OH), in that order: 1.18, 8.1% and “-”.
For `CC(C)[C@H](NC=O)C(=O)NCC(=O)N[C@@H](C)C(=O)N[C@@H](C(=O)N[C@@H](C)C(=O)N[C@@H](C(=O)N[C@H](C(=O)N[C@@H](C(=O)N[C@@H](Cc1c[nH]c2ccccc12)C(=O)N[C@@H](C(=O)N[C@@H](Cc1c[nH]c2ccccc12)C(=O)N[C@@H](C(=O)N[C@@H](Cc1c[nH]c2ccccc12)C(=O)N[C@@H](C(=O)N[C@@H](Cc1c[nH]c2ccccc12)C(=O)NCCO)C(C)C)C(C)C)C(C)C)C(C)C)C(C)C)C(C)C)[C@H](C)O` [compound 11453] (For-VGA[dT]A[dV]V[dV]W[dV]W[dV]W[dV]W-NHCH2CH2OH), in that order: 1.04, 49.2% and “-”.
